Kd, Ki and uptake rate data for 3 compounds are collected here from publication PMC12357092, “Two stages of substrate discrimination dictate selectivity in the Escherichia coli MetNI-Q ABC transporter system” (The Journal of Biological Chemistry, 2025).

The target in test [1] is T1, MetQ (Escherichia coli, UniProt P28635).
T1 construct: secreted, non-lipidated periplasmic MetQ, C-terminal 6xHis, from E. coli BL21(DE3) Gold
T1 sequence (P28635 23-271): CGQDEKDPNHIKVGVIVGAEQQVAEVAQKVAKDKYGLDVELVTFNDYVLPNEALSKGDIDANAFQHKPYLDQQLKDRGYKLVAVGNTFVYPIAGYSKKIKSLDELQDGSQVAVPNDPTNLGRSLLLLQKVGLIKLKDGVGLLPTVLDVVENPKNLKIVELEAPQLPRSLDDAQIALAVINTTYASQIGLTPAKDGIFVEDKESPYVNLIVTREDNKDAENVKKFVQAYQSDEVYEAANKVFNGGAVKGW
Nature of the test: isothermal titration calorimetry. Type of test: binding. Background: Isothermal titration calorimetry measures the heat released or taken up as one component is titrated into another.

In test [2] the target is T2, MetNI (Escherichia coli, UniProt P30750).
T2 construct: gene metN; DDM-solubilized full MetNI transporter (MetN2MetI2), His-tag purified, prepared as previously described; with D-methionine transport system permease protein MetI
Nature of the test: ATPase inhibition, EnzChek phosphate assay. Type of test: biochemical. The source says:
ATPase inhibition, EnzChek phosphate assay on MetNI | we measured the inhibitory constants (Ki) for both L- and D-Met

Test [3] has as its target T3, MetQ (Escherichia coli, UniProt P28635, N229A).
T3 construct: secreted, non-lipidated periplasmic MetQ, C-terminal 6xHis, from E. coli BL21(DE3) Gold
T3 sequence (P28635 23-271 N229A): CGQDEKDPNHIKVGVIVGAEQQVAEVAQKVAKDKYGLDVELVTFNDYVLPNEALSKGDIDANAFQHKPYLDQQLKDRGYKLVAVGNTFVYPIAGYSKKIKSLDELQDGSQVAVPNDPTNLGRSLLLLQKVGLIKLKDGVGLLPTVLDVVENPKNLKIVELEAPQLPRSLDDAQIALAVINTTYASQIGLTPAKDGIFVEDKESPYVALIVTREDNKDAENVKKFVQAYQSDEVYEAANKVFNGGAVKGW
The test is described as follows: isothermal titration calorimetry. Type of test: binding.

In test [4] the target is T4, MetNI (Escherichia coli, UniProt P30750, N295A).
T4 construct: gene metN; DDM-solubilized full MetNI transporter (MetN2MetI2), His-tag purified, prepared as previously described; with D-methionine transport system permease protein MetI
The test is described as follows: ATPase inhibition, EnzChek phosphate assay. Type of test: biochemical.

In test [5] the target is MetQ (Escherichia coli) (UniProt P28635). The note with it: cited from earlier work.
Test [6] has the same target. Particulars: cited from earlier work. This is another data set of the same source.
In test [7] the target is T5, MetNI-Q (Escherichia coli, UniProt P28635+P31547).
T5 construct: gene metQ
T5 sequence (P28635 23-271): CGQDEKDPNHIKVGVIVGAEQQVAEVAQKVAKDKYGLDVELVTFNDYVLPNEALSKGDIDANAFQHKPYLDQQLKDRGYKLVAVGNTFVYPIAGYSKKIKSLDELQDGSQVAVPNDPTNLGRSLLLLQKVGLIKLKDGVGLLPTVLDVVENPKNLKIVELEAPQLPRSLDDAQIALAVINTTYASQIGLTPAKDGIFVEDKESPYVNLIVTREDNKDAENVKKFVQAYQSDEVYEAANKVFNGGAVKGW
T5 sequence (P31547 1-217): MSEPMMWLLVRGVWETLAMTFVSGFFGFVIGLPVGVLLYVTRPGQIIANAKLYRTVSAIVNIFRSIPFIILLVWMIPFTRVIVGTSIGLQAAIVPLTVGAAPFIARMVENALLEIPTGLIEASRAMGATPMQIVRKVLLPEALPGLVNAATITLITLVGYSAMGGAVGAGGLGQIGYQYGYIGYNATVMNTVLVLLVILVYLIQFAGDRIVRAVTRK
T5 sequence (P30750 1-343 partner): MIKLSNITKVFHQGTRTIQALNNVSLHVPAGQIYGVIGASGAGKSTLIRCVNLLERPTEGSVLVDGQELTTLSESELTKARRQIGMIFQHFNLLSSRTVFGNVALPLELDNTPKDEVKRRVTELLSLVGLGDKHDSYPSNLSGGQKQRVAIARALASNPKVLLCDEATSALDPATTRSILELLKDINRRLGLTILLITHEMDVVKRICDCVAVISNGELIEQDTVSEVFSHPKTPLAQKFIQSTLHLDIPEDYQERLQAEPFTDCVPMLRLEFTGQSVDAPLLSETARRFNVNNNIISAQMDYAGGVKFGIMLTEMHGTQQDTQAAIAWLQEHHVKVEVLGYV
The test is described as follows: proteoliposome uptake of 3H-methionine. Type of test: biochemical. The note with it: 50 μM L-Met, 50 μM WT MetQ, ATP-regenerating system in lumen, 5 mM MgCl2, pH 7.5, 37 °C; labelled compound.

Where two headings read alike, the source gives them in different places.

T4 sequence (P30750 whole entry N295A, one chain of several): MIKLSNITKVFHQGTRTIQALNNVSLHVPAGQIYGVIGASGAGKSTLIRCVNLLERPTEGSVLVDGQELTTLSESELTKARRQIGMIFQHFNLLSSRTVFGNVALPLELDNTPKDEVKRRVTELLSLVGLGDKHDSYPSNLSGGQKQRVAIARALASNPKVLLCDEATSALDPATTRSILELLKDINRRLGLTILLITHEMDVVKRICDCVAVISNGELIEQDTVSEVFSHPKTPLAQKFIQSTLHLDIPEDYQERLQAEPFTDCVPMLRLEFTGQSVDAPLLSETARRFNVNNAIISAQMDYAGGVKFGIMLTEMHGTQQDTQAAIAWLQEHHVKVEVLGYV

For `CSCC[C@@H](N)C(=O)O` [D-Met], the Kd in test [1] came out at 6.6 ± 0.6 µM; in test [3], 110 ± 30 µM. In addition, the Ki in test [2] was 5400 ± 100 µM; in test [4] it was 2400 ± 400 µM.

MetNI (from UniProt P30750): the results for the Kd in test [5] and in test [6] were 1.1 µM and 0.027 µM, respectively.

Take `CSCC[C@H](N)C(=O)O` [L-Met]: the Kd in test [1] was 0.0066 ± 0.0006 µM; in test [3] it was 300 ± 70 µM. In addition, the Ki in test [2] is 120 ± 20 µM; in test [4], 3300 ± 300 µM. The uptake rate entry in test [7] was “L-Met was imported into proteoliposomes”.

The Kd is the equilibrium constant for the complex coming apart. A word on the Ki: it is a dissociation constant, usually derived from enzyme kinetics or from competition with a known ligand. A higher Ki goes with weaker binding.
